ChEMBL document CHEMBL4808238, “Small Molecule Inhibitors of KRAS Mutant as a Therapeutic Strategy for the Treatment of Cancer” (ACS Med Chem Lett, 2021)

target: GTPase KRas (Homo sapiens, UniProt P01116, G12C); assay: Inhibition of biotinylated KRAS G12C mutant (unknown origin) assessed as inhibition of SOS-catalyzed nucleotide exchange preincubated for 60 mins followed by addition of human recombinant SOS protein and unlabeled GTP and measured after 60 mins by TR-FRET analysis
Sequence (P01116 whole entry G12C): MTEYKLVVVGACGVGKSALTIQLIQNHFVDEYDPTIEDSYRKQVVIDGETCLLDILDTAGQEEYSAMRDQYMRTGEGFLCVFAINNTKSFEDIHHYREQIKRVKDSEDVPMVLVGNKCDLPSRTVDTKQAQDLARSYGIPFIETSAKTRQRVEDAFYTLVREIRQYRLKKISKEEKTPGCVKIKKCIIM

Structure (SMILES)	IC50
C=C(F)C(=O)N1CCN(c2cc(C(=O)N[C@H](C)CN(C)C)nc3c2CCN(c2cccc4cccc(C)c24)C3)C[C@@H]1CC#N	8.3 nM
C=CC(=O)N1CCN(c2cc(C(=O)NC3(C)CCCNC3)nc3c2CCN(c2cccc4cccc(C)c24)C3)C[C@@H]1CC#N (stereo partly specified)	5.4 nM
C=CC(=O)N1CCN(c2cc(C(=O)NCC3CCCCN3)nc3c2CCN(c2cccc4cccc(C)c24)C3)C[C@@H]1CC#N (stereo partly specified)	8.3 nM
C=CC(=O)N1CCN(c2cc(C(=O)N[C@H](C)CN3CC(C)(O)C3)nc3c2CCN(c2cccc4cccc(C)c24)C3)C[C@@H]1CC#N	2.2 nM
C=CC(=O)N1CCN(c2cc(C(=O)NC[C@H]3CCCN3)nc3c2CCN(c2cccc4cccc(C)c24)C3)C[C@@H]1CC#N	6.2 nM
C=CC(=O)N1CCN(c2cc(C(=O)N[C@H](C)CN(C)C)nc3c2CCN(c2c(Cl)c(C)cc4[nH]ncc24)C3)C[C@@H]1CC#N	0.9 nM
C=C(F)C(=O)N1CCN(c2cc(C(=O)NC(C)CN3CCC(C)(O)C3)nc3c2CCN(c2cccc4cccc(C)c24)C3)C[C@@H]1CC#N (stereo partly specified)	5 nM
C=CC(=O)N1CCN(c2cc(C(=O)NC3(CC)CCNC3)nc3c2CCN(c2cccc4cccc(C)c24)C3)C[C@@H]1CC#N (stereo partly specified)	4.5 nM
C=CC(=O)N1CCN(c2cc(C(=O)N[C@@H]3CCC[C@H]3N(C)C)nc3c2CCN(c2cccc4cccc(C)c24)C3)C[C@@H]1CC#N	1 nM
C=CC(=O)N1CCN(c2cc(C(=O)NC(C)CN3CCC(C)(O)C3)nc3c2CCN(c2cccc4cccc(C)c24)C3)C[C@@H]1CC#N (stereo in doubt; 75)	7.2 nM
C=CC(=O)N1CCN(c2cc(C(=O)NC(C)CN3CCC(C)(O)C3)nc3c2CCN(c2cccc4cccc(C)c24)C3)C[C@@H]1CC#N (stereo in doubt; 76)	6.2 nM
